In US20060058374A1, “Urotensin II receptor agents” (priority 2002, published 2006):

Test system: dogs
Conditions: intravenal administration to dogs; cited from earlier work

Structure (SMILES)	anti-hypertensive activity
CN(C)CCC1(c2ccccc2)Cc2ccccc2CO1 (centres unmarked) [3-(2-dimethylamino-ethyl)-3-(phenyl)-isochroman]	anti-hypertensive activity
CN(C)CCC1(c2ccccc2)Cc2ccccc2C(=O)O1 (centres unmarked) [3-(2-dimethylamino-ethyl)-3,4-dihydro-3-phenyl-isocoumarin]	anti-hypertensive activity
COc1ccc(C2(CCN(C)C)Cc3ccccc3C(=O)O2)cc1 (centres unmarked) [3-(2-dimethylamino-ethyl)-3,4-dihydro-3-(p-methoxy-phenyl)-isocoumarin]	anti-hypertensive activity

Test system: rats
Conditions: oral administration to rats; cited from earlier work

Structure (SMILES)	diuretic action
CN(C)CCC1(c2ccccc2)Cc2ccccc2C(=O)O1 (centres unmarked) [3-(2-dimethylamino-ethyl)-3,4-dihydro-3-phenyl-isocoumarin]	diuretics
COc1ccc(C2(CCN(C)C)Cc3ccccc3C(=O)O2)cc1 (centres unmarked) [3-(2-dimethylamino-ethyl)-3,4-dihydro-3-(p-methoxy-phenyl)-isocoumarin]	diuretics
CC(CN(C)C)C1(c2ccccc2)Cc2ccccc2C(=O)O1 (centres unmarked) [3-(2-dimethylamino-(1-methyl-ethyl))-3,4-dihydro-3-phenyl-isocoumarin]	diuretics

Test system: not given
Conditions: not given

melting point	Structure (SMILES)
> 250 °C (dec.)	COc1ccccc1C1(CCN(C)C)Cc2ccccc2C(=O)O1.Cl (centres unmarked)
> 250 °C (dec.)	CN(C)CCC1(c2ccccc2Cl)Cc2ccccc2C(=O)O1.Cl (centres unmarked)
> 250 °C (dec.)	Cc1cccc2c1C(=O)OC(CCN(C)C)(c1ccc(Cl)cc1)C2.Cl (centres unmarked)
> 250 °C (dec.)	CN(C)CCC1(c2cccs2)Cc2ccccc2C(=O)O1.Cl (centres unmarked)
245.2 to 246.3 °C (dec.)	CN(C)CCC1(c2ccc(Oc3ccccc3)cc2)Cc2ccccc2C(=O)O1.Cl (centres unmarked)
> 250 °C (dec.)	CN(C)CCCC1(c2ccc(Cl)cc2)Cc2ccccc2C(=O)O1.Cl (centres unmarked)
> 250 °C (dec.)	COc1cccc2c1CC(CCN(C)C)(c1ccccc1)OC2=O.Cl (centres unmarked)
> 250 °C (dec.)	CCN(CC)CCC1(c2ccc(Cl)cc2)Cc2ccccc2C(=O)O1.Cl (centres unmarked)
> 250 °C (dec.)	Cl.O=C1OC(CCN2CCCC2)(c2ccc(Cl)cc2)Cc2ccccc21 (centres unmarked)
> 250 °C (dec.)	CN1CCN(CCC2(c3ccc(Cl)cc3)Cc3ccccc3C(=O)O2)CC1.Cl (centres unmarked)
> 250 °C (dec.)	Cc1ccc2c(c1)C(=O)OC(CCN(C)C)(c1ccccc1)C2.Cl (centres unmarked)
> 250 °C (dec.)	Cl.O=C1OC(CCN2CCCCC2)(c2ccc(Cl)cc2)Cc2ccccc21 (centres unmarked)
> 250 °C (dec.)	CN(C)CCC1(c2cccc(F)c2)Cc2ccccc2C(=O)O1.Cl (centres unmarked)
> 250 °C (dec.)	CC1c2ccccc2C(=O)OC1(CCN(C)C)c1ccc(Cl)cc1.Cl (centres unmarked)
> 250 °C (dec.)	CN(C)CCC1(c2cccc(Cl)c2)Cc2ccccc2C(=O)O1.Cl (centres unmarked)
> 250 °C (dec.)	CN(C)CCC1(c2ccccc2)Cc2ccccc2C(=O)O1.Cl (centres unmarked)
> 250 °C (dec.)	COc1cccc(C2(CCN(C)C)Cc3ccccc3C(=O)O2)c1.Cl (centres unmarked)
> 250 °C (dec.)	Cc1cccc2c1CC(CCN(C)C)(c1ccccc1)OC2=O.Cl (centres unmarked)
> 250 °C (dec.)	COc1ccc(C2(CCN(C)C)Cc3ccccc3C(=O)O2)cc1.Cl (centres unmarked)

Test system: rats
Conditions: oral administration to rats; cited from earlier work
Remark: another data set of the same source

Structure (SMILES)	antihypertensive action
CC(CN(C)C)C1(c2ccccc2)Cc2ccccc2C(=O)O1 (centres unmarked) [3-(2-dimethylamino-(1-methyl-ethyl))-3,4-dihydro-3-phenyl-isocoumarin]	ineffective
